What all share (assay type): cell-based
The target of one experiment is T1, PrRPR P142A (Homo sapiens, UniProt P49683, P142A).
T1 construct: expressed in transfected cells; host or cells: AD293 cells
Put plainly: BRET2 Gq dissociation, P142A. The note with it: P142A (3.33), Gq-coupling, AD293 cells; mean ± S.E.M., n = 3; P <0.0001 vs WT; read-out: BRET2 pEC50 (converted). The procedure: (§1) AD293 cells (Agilent) were propagated in Dulbecco’s Modified Eagle Medium (DMEM, Thermo Fisher Scientific), enriched with 10% fetal bovine serum (FBS, Thermo Fisher Scientific), and maintained at 37 °C in a 5% CO2 environment. Cells were then seeded in 6-well dishes at a density of 130,000–150,000 cells per mL and allowed to incubate overnight. On the next day, cells were transfected with plasmids at a 1:1:1:1 ratio for receptor:Gα-RLuc8:Gβ:Gγ-GFP2[52]. PEI MAX 40 K (BIOHUB) was utilized to form complex with the plasmids at a ratio of 3 µL PEI per µg of plasmids, in OptiMEM (Gibco-Thermo Fisher Scientific) at a concentration of 10 ng plasmids per µL OptiMEM. After 24 h of incubation, the culture was harvested by centrifugation with PBS. The cell suspension was then allocated into a white 384-well plate at a volume of 30 µL per well, followed by the addition of 10 µL of freshly prepared 50 µM coelenterazine 400a (Yeasen). […] Plates were subsequently read in a BioTek Synergy H1 microplate reader (BioTek) equipped with 395 nm (RLuc8-coelenterazine 400a) and 510 nm (GFP2) emission filters. BRET2 ratios were calculated as the ratio of the GFP2 emission to RLuc8 emission. […]
(§2) Supplementary Fig. S4 | Effects of mutations in the ligand-binding pocket and G protein intereface of Gq coupled PrRPR by BRET2 assay. […] BRET2 assay signals were measured after stimulation with PrRP20. […]
Background: Bioluminescence resonance energy transfer reports proximity on the nanometre scale.

In experiment [1] the target is T2, PrRPR T233A (Homo sapiens, UniProt P49683, T233A).
T2 construct: Flag; expressed in transfected cells; host or cells: AD293 cells
T2 sequence (P49683 whole entry T233A): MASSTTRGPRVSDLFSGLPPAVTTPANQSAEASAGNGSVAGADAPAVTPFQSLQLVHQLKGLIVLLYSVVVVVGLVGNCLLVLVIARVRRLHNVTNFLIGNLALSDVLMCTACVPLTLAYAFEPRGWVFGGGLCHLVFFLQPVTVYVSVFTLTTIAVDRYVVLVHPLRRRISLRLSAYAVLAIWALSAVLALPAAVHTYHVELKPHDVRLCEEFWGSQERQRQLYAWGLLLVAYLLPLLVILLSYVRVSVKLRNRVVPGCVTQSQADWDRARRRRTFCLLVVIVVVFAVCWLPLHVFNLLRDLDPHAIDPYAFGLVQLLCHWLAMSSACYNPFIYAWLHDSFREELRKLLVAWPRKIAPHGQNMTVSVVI
Put plainly: BRET2 Gq dissociation, T233A. The note with it: T233A (5.46), Gq-coupling, AD293 cells; mean ± S.E.M., n = 3; P <0.0001 vs WT; read-out: BRET2 pEC50 (converted). The procedure: as §1, §2

Another experiment concerns the target T3, PrRPR L294A (Homo sapiens, UniProt P49683, L294A).
T3 construct: Flag; expressed in transfected cells; host or cells: AD293 cells
Put plainly: BRET2 Gi dissociation, L294A. As to conditions: L294A (6.51), Gi-coupling, AD293 cells; mean ± S.E.M., n = 3; P 0.2845 vs WT; read-out: BRET2 pEC50 (converted). Here is the method:
(§3) AD293 cells (Agilent) were propagated in Dulbecco’s Modified Eagle Medium (DMEM, Thermo Fisher Scientific), enriched with 10% fetal bovine serum (FBS, Thermo Fisher Scientific), and maintained at 37 °C in a 5% CO2 environment. Cells were then seeded in 6-well dishes at a density of 130,000–150,000 cells per mL and allowed to incubate overnight. On the next day, cells were transfected with plasmids at a 1:1:1:1 ratio for receptor:Gα-RLuc8:Gβ:Gγ-GFP2[52]. PEI MAX 40 K (BIOHUB) was utilized to form complex with the plasmids at a ratio of 3 µL PEI per µg of plasmids, in OptiMEM (Gibco-Thermo Fisher Scientific) at a concentration of 10 ng plasmids per µL OptiMEM. After 24 h of incubation, the culture was harvested by centrifugation with PBS. The cell suspension was then allocated into a white 384-well plate at a volume of 30 µL per well, followed by the addition of 10 µL of freshly prepared 50 µM coelenterazine 400a (Yeasen). Following a 15-min equilibration period, cells were treated with 10 µL of ligand for an additional 5 min. Plates were subsequently read in a BioTek Synergy H1 microplate reader (BioTek) equipped with 395 nm (RLuc8-coelenterazine 400a) and 510 nm (GFP2) emission filters. BRET2 ratios were calculated as the ratio of the GFP2 emission to RLuc8 emission. Data were normalized to the baseline response of the ligand. […]

The next experiment concerns the target T4, PrRPR W127A (Homo sapiens, UniProt P49683, W127A).
T4 construct: expressed in transfected cells; host or cells: AD293 cells
Nature of the experiment: BRET2 Gq dissociation, W127A. The note with it: W127A (23.50), Gq-coupling, AD293 cells; mean ± S.E.M., n = 3; P <0.0001 vs WT; read-out: BRET2 pEC50 (converted). Here is the method: as §1, §2

For another experiment, the target named is T5, PrRPR T117A (Homo sapiens, UniProt P49683, T117A).
T5 construct: expressed in transfected cells; host or cells: AD293 cells
T5 sequence (P49683 whole entry T117A): as the sequence (P49683 whole entry T233A) above, with T117A, A233T counted along it
Nature of the experiment: BRET2 Gq dissociation, T117A. The note with it: T117A (2.61), Gq-coupling, AD293 cells; mean ± S.E.M., n = 3; P <0.0001 vs WT; read-out: BRET2 pEC50 (converted). The procedure: as §1, §2

The target of a further experiment is T6, PrRPR Y225A (Homo sapiens, UniProt P49683, Y225A).
T6 construct: Flag; expressed in transfected cells; host or cells: AD293 cells
T6 sequence (P49683 whole entry Y225A): as the sequence (P49683 whole entry T233A) above, with Y225A, A233T counted along it
Nature of the experiment: BRET2 Gi dissociation, Y225A. The note with it: Y225A (5.38), Gi-coupling, AD293 cells; mean ± S.E.M., n = 3; P <0.0001 vs WT; read-out: BRET2 pEC50 (converted). The procedure:
as §3

Another experiment has as its target T7, PrRPR L203A (Homo sapiens, UniProt P49683, L203A).
T7 construct: expressed in transfected cells; host or cells: AD293 cells
Nature of the experiment: BRET2 Gq dissociation, L203A. The note with it: L203A (ECL2), Gq-coupling, AD293 cells; mean ± S.E.M., n = 3; P 0.0021 vs WT; read-out: BRET2 pEC50 (converted). Here is the method:
as §1, §2

In another experiment the target is T8, PrRPR F313A (Homo sapiens, UniProt P49683, F313A).
T8 construct: Flag; expressed in transfected cells; host or cells: AD293 cells
T8 sequence (P49683 whole entry F313A): as the sequence (P49683 whole entry T233A) above, with A233T, F313A counted along it
Put plainly: BRET2 Gq dissociation, F313A. As to conditions: F313A (7.31), Gq-coupling, AD293 cells; mean ± S.E.M., n = 3; P 0.0012 vs WT; read-out: BRET2 pEC50 (converted). The procedure: as §1, §2

In experiment [2] the target is T2, PrRPR T233A. Put plainly: BRET2 Gi dissociation, T233A. The note with it: T233A (5.46), Gi-coupling, AD293 cells; mean ± S.E.M., n = 3; P <0.0001 vs WT; read-out: BRET2 pEC50 (converted). The procedure:
as §3

A further experiment concerns the target T9, PrRPR C113A (Homo sapiens, UniProt P49683, C113A).
T9 construct: expressed in transfected cells; host or cells: AD293 cells
Put plainly: BRET2 Gi dissociation, C113A. The note with it: C113A (2.57), Gi-coupling, AD293 cells; mean ± S.E.M., n = 3; P 0.0008 vs WT; read-out: BRET2 pEC50 (converted). Here is the method:
as §3

In another experiment the target is T10, PrRPR E212A (Homo sapiens, UniProt P49683, E212A).
T10 construct: expressed in transfected cells; host or cells: AD293 cells
T10 sequence (P49683 whole entry E212A): as the sequence (P49683 whole entry T233A) above, with E212A, A233T counted along it
Nature of the experiment: BRET2 Gi dissociation, E212A. The note with it: E212A (45.51), Gi-coupling, AD293 cells; mean ± S.E.M., n = 3; P <0.0001 vs WT; read-out: BRET2 pEC50 (converted). The procedure: as §3

The target of a further experiment is T11, PrRPR N298A (Homo sapiens, UniProt P49683, N298A).
T11 construct: Flag; expressed in transfected cells; host or cells: AD293 cells
T11 sequence (P49683 whole entry N298A): as the sequence (P49683 whole entry T233A) above, with A233T, N298A counted along it
Nature of the experiment: BRET2 Gq dissociation, N298A. As to conditions: N298A (6.55), Gq-coupling, AD293 cells; mean ± S.E.M., n = 3; P 0.0042 vs WT; read-out: BRET2 pEC50 (converted). The procedure:
as §1, §2

Each structure is given as a SMILES string. Peptide text beside a SMILES is read from it.

T1 sequence (P49683 whole entry P142A): as the sequence (P49683 whole entry T233A) above, with P142A, A233T counted along it
T9 sequence (P49683 whole entry C113A): as the sequence (P49683 whole entry T233A) above, with C113A, A233T counted along it
T4 sequence (P49683 whole entry W127A): as the sequence (P49683 whole entry T233A) above, with W127A, A233T counted along it
T7 sequence (P49683 whole entry L203A): as the sequence (P49683 whole entry T233A) above, with L203A, A233T counted along it
T3 sequence (P49683 whole entry L294A): as the sequence (P49683 whole entry T233A) above, with A233T, L294A counted along it

As for `CC[C@H](C)[C@H](NC(=O)CNC(=O)[C@H](CCCNC(=N)N)NC(=O)[C@H](CO)NC(=O)[C@H](C)NC(=O)[C@H](Cc1ccc(O)cc1)NC(=O)[C@H](Cc1c[nH]c2ccccc12)NC(=O)[C@H](C)NC(=O)[C@@H]1CCCN1C(=O)[C@H](CC(N)=O)NC(=O)[C@@H](NC(=O)[C@H](CC(=O)O)NC(=O)[C@@H]1CCCN1C(=O)[C@@H](N)[C@@H](C)O)[C@@H](C)CC)C(=O)N[C@@H](CCCNC(=N)N)C(=O)N1CCC[C@H]1C(=O)N[C@H](C(=O)NCC(=O)N[C@@H](CCCNC(=N)N)C(=O)N[C@@H](Cc1ccccc1)C(N)=O)C(C)C` [PrRP20] (H-TPDINPAWYASRGIRPVGRF-NH2), the EC50 is 4.79 nM on PrRPR P142A; 5.75 nM at PrRPR T233A [1]; 3.72 nM on PrRPR L294A; 240 nM on PrRPR W127A; 107 nM on PrRPR T117A; 550 nM at PrRPR Y225A. The EC50 at PrRPR L203A was 3.09 nM; at PrRPR F313A, 3.39 nM; on PrRPR T233A [2], 18.6 nM; on PrRPR C113A it was 7.08 nM; at PrRPR E212A, 398 nM; at PrRPR N298A, 2.95 nM.

The record behind these values is article PMC11369081, “Molecular mechanism of prolactin-releasing peptide recognition and signaling via its G protein-coupled receptor” (Cell Discovery, 2024).
